Values quoted from earlier work as cited in US20150141549A1, “ANTIBIOTIC PARTICLES AND PRODUCTION METHOD THEREOF” (Japan EnviroChemicals, Ltd., priority 2012, published 2015).

In the case of CCCCNC(=O)OCC#CI [IPBC, 3-iodo-2-propynylbutylcarbamate], the water solubility is listed as 150 ppm.
